Target: T1, Androgen receptor (Homo sapiens) (UniProt P10275)
T1 sequence (whole entry): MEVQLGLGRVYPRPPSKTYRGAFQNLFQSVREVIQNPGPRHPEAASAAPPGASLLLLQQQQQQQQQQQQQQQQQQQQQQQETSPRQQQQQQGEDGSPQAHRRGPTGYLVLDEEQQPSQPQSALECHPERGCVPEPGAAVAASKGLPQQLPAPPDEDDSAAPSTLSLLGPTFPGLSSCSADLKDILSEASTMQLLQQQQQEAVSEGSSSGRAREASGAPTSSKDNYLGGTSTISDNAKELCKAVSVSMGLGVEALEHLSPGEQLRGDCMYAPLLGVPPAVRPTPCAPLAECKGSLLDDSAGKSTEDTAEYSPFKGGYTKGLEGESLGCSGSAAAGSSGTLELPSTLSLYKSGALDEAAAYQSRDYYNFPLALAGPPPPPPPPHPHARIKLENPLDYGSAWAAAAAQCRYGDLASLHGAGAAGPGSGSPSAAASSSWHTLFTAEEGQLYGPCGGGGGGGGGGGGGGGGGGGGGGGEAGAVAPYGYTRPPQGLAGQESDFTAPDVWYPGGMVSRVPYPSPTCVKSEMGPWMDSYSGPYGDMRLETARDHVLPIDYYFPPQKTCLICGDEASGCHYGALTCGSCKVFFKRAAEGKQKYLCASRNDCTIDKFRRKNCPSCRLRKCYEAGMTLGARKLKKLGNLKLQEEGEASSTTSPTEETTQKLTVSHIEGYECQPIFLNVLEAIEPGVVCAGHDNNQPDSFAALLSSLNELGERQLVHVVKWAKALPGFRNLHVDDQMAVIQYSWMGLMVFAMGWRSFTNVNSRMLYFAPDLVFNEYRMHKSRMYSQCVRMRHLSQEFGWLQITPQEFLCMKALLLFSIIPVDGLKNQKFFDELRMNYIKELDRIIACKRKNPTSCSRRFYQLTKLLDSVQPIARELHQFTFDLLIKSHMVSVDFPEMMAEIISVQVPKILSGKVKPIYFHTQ
Settings: CV-1
Description: Relative stimulatory activity compared to 5-alpha-DHT in CV-1 cells expressing androgen receptor

SMILES	RSA
CC12CC[C@@H]3C4CCC(=O)CC4C[C@@H](F)[C@H]3[C@@H]1CC[C@]2(C)O (some centres not stated)	16
CC12CC[C@@H]3C4CCC(=O)CC4C[C@@H](I)[C@H]3[C@@H]1CC[C@]2(C)O (some centres not stated)	8
